Measured values from ChEMBL document CHEMBL6177973, “A Novel Compound 3a-M1, from Metabolites of Sinomenine Derivative 3a, Exerts Potent Anti-Aplastic Anemia Activity via IP3R/ORAI-Mediated CTL Ferroptosis” (J Med Chem, 2025).
Active and inactive are the calls of the source. No cut-off for these calls is given here.

Key:
[1] = Drug metabolism in rat plasma assessed as cinnamic acid metabolite formation at 50 mg/kg, po measured for 24 hrs by HRMS analysis; format: ADME, organism-based; conditions: in vivo
[2] = Drug metabolism in mouse liver assessed as (4bR,9S)-1-(hydroxymethyl)-3,7-dimethoxy-11-methyl-6-oxo-6,8a,9,10-tetrahydro-5H-9,4b-(epiminoethano)phenanthren-4-yl cinnamate metabolite formation at 50 mg/kg, po measured for 0.083 to 8 hrs by HPLC analysis; format: ADME, organism-based; conditions: in vivo, time 0.083-8 hrs
[3] = Drug metabolism in mouse bone marrow assessed as cinnamic acid metabolite formation at 50 mg/kg, po measured for 0.083 to 8 hrs by HPLC analysis; format: ADME, organism-based; conditions: in vivo, time 0.083-8 hrs
[4] = Drug metabolism in mouse lymph node assessed as cinnamic acid metabolite formation at 50 mg/kg, po measured for 0.083 to 8 hrs by HPLC analysis; format: ADME, organism-based; conditions: in vivo, time 0.083-8 hrs
[5] = Drug metabolism in mouse blood assessed as cinnamic acid metabolite formation at 50 mg/kg, po measured for 0.083 to 8 hrs by HPLC analysis; format: ADME, organism-based; conditions: in vivo, time 0.083-8 hrs
[6] = Stability in mouse plasma at 37 degreeC; format: ADME, cell-free
[7] = Drug metabolism in Sprague-Dawley rat plasma assessed as cinnamic acid metabolite formation at 5 mg/kg, iv measured for 24 hrs by HPLC analysis; format: ADME, organism-based; conditions: in vivo
[8] = Stability in mouse kidney assessed as compound remaining at 50 mg/kg, po measured for 0.083 to 8 hrs by HPLC analysis; format: ADME, organism-based; conditions: in vivo, time 0.083-8 hrs
[9] = tested on: CTLL-2; assay: Induction of ferroptosis in mouse CTLL-2 cells assessed as increase in ROS level at 10 uM incubated for 45 mins in presence of CM4620; format: functional, cell-based
[10] = tested on: Mus musculus; assay: Anti-aplastic anemia activity in C57BL/6J mouse model of immune-mediated bone marrow failure assessed as increase in animal survival at 5 to 15 mg/kg, IG qd treated for 21 days; format: functional, organism-based; conditions: dose 5-15 mg/kg, time 21.0 day
[11] = tested on: Mus musculus; assay: Anti-aplastic anemia activity in C57BL/6J mouse model of immune-mediated bone marrow failure assessed as reduction in cytotoxic T lymphocytes hyperactivation at 5 to 15 mg/kg, IG qd treated for 12 days; format: functional, organism-based; conditions: dose 5-15 mg/kg, time 12.0 day
[12] = Cmax in Sprague-Dawley rat at 50 mg/kg, po measured for 0.083 to 24 hrs by HPLC analysis; format: ADME, organism-based; conditions: in vivo, time 0.083-24 hrs
[13] = tested on: Mus musculus; assay: Anti-aplastic anemia activity in BALB/c mouse model of immune-mediated bone marrow failure assessed as increase in nucleated cells in bone marrow at 10 mg/kg, po treated for 14 days by H and E staining based analysis; format: functional, organism-based; conditions: time 14.0 day
[14] = tested on: NRK-52E; assay: Induction of ferroptosis in rat NRK-52E cells assessed as increase in intracellular Ca2+ concentration at 10 uM by Fluo-4 AM dye based analysis; format: functional, cell-based
[15] = tested on: Mus musculus; assay: Anti-aplastic anemia activity in C57BL/6J mouse model of immune-mediated bone marrow failure assessed as CD4+ T cells at 5 mg/kg, IG qd treated for 12 days by flow cytometry (reference value: 12.93 %); format: functional; conditions: time 12 day
[16] = tested on: Mus musculus; assay: Anti-aplastic anemia activity in C57BL/6J mouse model of immune-mediated bone marrow failure assessed as reduction in cytotoxic T lymphocytes accumulation at 5 to 15 mg/kg, IG qd treated for 12 days; format: functional, organism-based; conditions: dose 5-15 mg/kg, time 12.0 day
[17] = tested on: Mus musculus; assay: Anti-aplastic anemia activity in C57BL/6J mouse model of immune-mediated bone marrow failure assessed as increase in dietary intake at 5 to 15 mg/kg, IG qd treated for 21 days; format: functional, organism-based; conditions: dose 5-15 mg/kg, time 21.0 day
[18] = tested on: Mus musculus; assay: Anti-aplastic anemia activity in C57BL/6J mouse model of immune-mediated bone marrow failure assessed as CD8+ T cells at 15 mg/kg, IG qd treated for 12 days by flow cytometry (reference value: 72.15 %); format: functional; conditions: time 12 day
[19] = tested on: CTLL-2; assay: Induction of ferroptosis in IL-2-stimulated mouse CTLL-2 cells assessed as increase in p-p38 level at 30 uM incubated for 6 hrs followed by Fer-1 addition measured after 10 hrs by Western blot analysis; format: functional, cell-based; conditions: time 16.0 hrs
[20] = tested on: CTLL-2; assay: Induction of ferroptosis in IL-2-stimulated mouse CTLL-2 cells assessed as increase in mitochondrial superoxide level at 30 uM incubated for 6 hrs followed by Fer-1 addition measured after 10 hrs by MitoSOX Red staining based fluorescent microscopy; format: functional, cell-based; conditions: time 16.0 hrs
[21] = tested on: CTLL-2; assay: Induction of ferroptosis in mouse CTLL-2 cells assessed as increase in pMEK level at 7.5 to 30 uM incubated for 16 hrs by Western blot analysis; format: functional, cell-based; conditions: dose 7.5-30 µM
[22] = tested on: CTLL-2; assay: Cytotoxicity against mouse CTLL-2 cells assessed as inhibition of cell viability incubated for 72 hrs by CCK8 assay; format: functional, cell-based; conditions: CTLL-2, 72 h, read-out: IC50
[23] = tested on: Mus musculus; assay: Anti-aplastic anemia activity in C57BL/6J mouse model of immune-mediated bone marrow failure assessed as decrease in ratio of CD8+ to CD4+ T cells at 5 to 15 mg/kg, IG qd treated for 12 days by flow cytometry; format: functional, organism-based; conditions: dose 5-15 mg/kg, time 12.0 day
[24] = tested on: CTLL-2; assay: Induction of ferroptosis in IL-2-stimulated mouse CTLL-2 cells assessed as increase in intracellular lipid peroxidation level at 30 uM incubated for 6 hrs followed by Fer-1 addition measured after 10 hrs by flow cytometry; format: functional, cell-based; conditions: time 16.0 hrs
[25] = tested on: NRK-52E; assay: Cytotoxicity against rat NRK-52E cells assessed as inhibition of cell viability incubated for 72 hrs by CCK8 assay; format: functional, cell-based
[26] = tested on: RAW264.7; assay: Cytotoxicity against mouse RAW264.7 cells assessed as inhibition of cell viability incubated for 72 hrs by CCK8 assay; format: functional, cell-based; conditions: RAW264.7, 72 h
[27] = tested on: Mus musculus; assay: Anti-aplastic anemia activity in C57BL/6J mouse model of immune-mediated bone marrow failure assessed as reduction in IFN-gamma level at 5 to 15 mg/kg, IG qd treated for 12 days by ELISA; format: functional, organism-based; conditions: dose 5-15 mg/kg, time 12.0 day
[28] = tested on: Mus musculus; assay: Anti-aplastic anemia activity in C57BL/6J mouse model of immune-mediated bone marrow failure assessed as increase in memory CD8+ T cells at 5 to 15 mg/kg, IG qd treated for 12 days by flow cytometry; format: functional, organism-based; conditions: dose 5-15 mg/kg, time 12.0 day
[29] = tested on: Mus musculus; assay: Anti-aplastic anemia activity in BALB/c mouse model of immune-mediated bone marrow failure assessed as increase in peripheral red blood cells at 10 mg/kg, po treated for 14 days; format: functional, organism-based; conditions: time 14.0 day
[30] = tested on: Mus musculus; assay: Anti-aplastic anemia activity in C57BL/6J mouse model of immune-mediated bone marrow failure assessed as decrease in histopathological change in bone marrow treated intragastrically once daily for 21 days by H and E staining based analysis; format: functional, organism-based; conditions: dose 5-15 mg/kg, route ig, time 21.0 day
[31] = tested on: Mus musculus; assay: Anti-aplastic anemia activity in C57BL/6J mouse model of immune-mediated bone marrow failure assessed as increase in white blood cells treated intragastrically once daily for 21 days; format: functional, organism-based; conditions: dose 5-15 mg/kg, route ig, time 21.0 day
[32] = tested on: CTLL-2; assay: Induction of ferroptosis in mouse CTLL-2 cells assessed as increase in intracellular Ca2+ concentration incubated for 24 hrs by Fluo-4 AM dye based analysis; format: functional, cell-based
[33] = tested on: CTLL-2; assay: Induction of ferroptosis in mouse CTLL-2 cells assessed as increase in intracellular lipid peroxidation level at 30 uM incubated for 16 hrs by flow cytometry; format: functional, cell-based
[34] = tested on: CTLL-2; assay: Induction of ferroptosis in mouse CTLL-2 cells assessed as increase in free Fe2+ level incubated for 16 hrs by FerroOrange staining based flow cytometry; format: functional, cell-based; conditions: dose 7.5-30 µM

With `COC1=C[C@@H]2[C@@H]3Cc4c(COC(=O)/C=C/c5ccccc5)cc(OC)c(OC(=O)/C=C/c5ccccc5)c4[C@]2(CCN3C)CC1=O` the Drug metabolism [1] was “metabolite_notdetected”, the Drug metabolism [2] was “metabolite_detected” and the Drug metabolism [3] was “metabolite_detected”. The Drug metabolism [4] was “metabolite_detected”, the Drug metabolism [5] was “metabolite_detected” and the Stability [6] was “Unstable”. The Drug metabolism [7] was “metabolite_detected” and the Stability [8] was “Unstable”.

With `COC1=C[C@@H]2[C@@H]3Cc4c(CO)cc(OC)c(OC(=O)/C=C/c5ccccc5)c4[C@]2(CCN3C)CC1=O` the Activity [9] was “inactive”, the Activity [10] was “Active; Improvement Observed During Early Stages Of Bone Marrow Failure” and the Activity [11] was “Active”. The Cmax [12] was 3590 ng/mL, the Activity [13] was “Active” and the Activity [14] was “Not active; Elevation Was Smaller Than In Mouse Ctll-2 Cells”. The Activity [15] was 11.38%, the Activity [16] was “Active” and the Activity [17] was “Active”. The Activity [18] was 35.23%, the Activity [19] was “inactive” and the Activity [20] was “inactive”. The Activity [21] was “Active”, the IC50 [22] was 37.9 µM and the Activity [23] was “Active”. The Activity [24] was “inactive”, the IC50 [25] was 705 µM and the IC50 [26] was 492 µM. The Activity [27] was “Active”, the Activity [28] was “Active” and the Activity [29] was “Active”. For the same compound, the Activity [30] was “Dose-dependent-effect”, the Activity [31] was “Dose-dependent-effect” and the Activity [32] was “Active”. The Activity [33] was “Active” and the Activity [34] was “Dose-dependent-effect”.
